{"source": "ChEMBL document CHEMBL2074101", "about": "“Cloning and characterization of a rat H+/peptide cotransporter mediating absorption of beta-lactam antibiotics in the intestine and kidney” (J Pharmacol Exp Ther, 1995)", "molecules": {"B1": {"name": "Solute carrier family 15 member 1 (Rattus norvegicus), P51574 (protein)", "chain": "MGMSKSRGCFGYPLSIFFIVVNEFCERFSYYGMRALLVLYFRNFLGWDDDLSTAIYHTFVALCYLTPILGALIADSWLGKFKTIVSLSIVYTIGQAVISVSSINDLTDHDHDGSPNNLPLHVALSMIGLALIALGTGGIKPCVSAFGGDQFEEGQEKQRNRFFSIFYLAINAGSLLSTIITPILRVQQCGIHSQQACYPLAFGVPAALMAVALIVFVLGSGMYKKFQPQGNIMGKVAKCIRFAIKNRFRHRSKAFPKRNHWLDWAKEKYDERLISQIKIMTKVMFLYIPLPMFWALFDQQGSRWTLQATTMTGKIGTIEIQPDQMQTVNAILIVIMVPIVDAVVYPLIAKCGFNFTSLKKMTVGMFLASMAFVVAAIVQVEIDKTLPVFPSGNQVQIKVLNIGNNDMAVYFPGKNVTVAQMSQTDTFMTFDVDQLTSINVSSPGSPGVTTVAHEFEPGHRHTLLVWGPNLYRVVKDGLNQKPEKGENGIRFVSTLNEMITIKMSGKVYENVTSHSASNYQFFPSGQKDYTINTTEIAPNCSSDFKSSNLDFGSAYTYVIRSRASDGCLEVKEFEDIPPNTVNMALQIPQYFLLTCGEVVFSVTGLEFSYSQAPSNMKSVLQAGWLLTVAIGNIIVLIVAEAGHFDKQWAEYVLFASLLLVVCIIFAIMARFYTYINPAEIEAQFDEDEKKKGVGKENPYSSLEPVSQTNM"}}, "assay_type_in_all_cases": "functional, cell-based", "settings_in_all_cases": "Oocyte", "key": {"[1]": {"biological_target": "T1, Solute carrier family 15 member 1 (Rattus norvegicus) (UniProt P51574)", "T1 sequence (whole entry)": "B1 chain", "test": "TP_TRANSPORTER: inhibition of Cephradine uptake (Cephradine: 3000 uM, Ceftibuten: 10000 uM) in Xenopus laevis oocytes"}, "[2]": {"biological_target": "T1, Solute carrier family 15 member 1 (Rattus norvegicus)", "test": "TP_TRANSPORTER: inhibition of Ceftibuten uptake (Ceftibuten: 1000 uM, Carnosine: 10000 uM) in Xenopus laevis oocytes"}, "[3]": {"biological_target": "T1, Solute carrier family 15 member 1 (Rattus norvegicus)", "test": "TP_TRANSPORTER: inhibition of Cephradine uptake (Cephradine: 3000 uM, Carnosine: 10000 uM) in Xenopus laevis oocytes"}, "[4]": {"biological_target": "T1, Solute carrier family 15 member 1 (Rattus norvegicus)", "test": "TP_TRANSPORTER: inhibition of Ceftibuten uptake (Ceftibuten: 1000 uM, Cephradine: 10000 uM) in Xenopus laevis oocytes"}, "[5]": {"biological_target": "T1, Solute carrier family 15 member 1 (Rattus norvegicus)", "test": "TP_TRANSPORTER: inhibition of Cephradine uptake (Cephradine: 3000 uM, Bestatin: 10000 uM) in Xenopus laevis oocytes"}, "[6]": {"biological_target": "T1, Solute carrier family 15 member 1 (Rattus norvegicus)", "test": "TP_TRANSPORTER: inhibition of Ceftibuten uptake (Ceftibuten: 1000 uM, Bestatin: 10000 uM) in Xenopus laevis oocytes"}, "[7]": {"biological_target": "T1, Solute carrier family 15 member 1 (Rattus norvegicus)", "test": "TP_TRANSPORTER: inhibition of Cephradine uptake (Cephradine: 3000 uM, Gly-Leu: 10000 uM) in Xenopus laevis oocytes"}, "[8]": {"biological_target": "T1, Solute carrier family 15 member 1 (Rattus norvegicus)", "test": "TP_TRANSPORTER: inhibition of Ceftibuten uptake (Ceftibuten: 1000 uM, Gly-Leu: 10000 uM) in Xenopus laevis oocytes"}, "[9]": {"substrate": "Nc1nc(/C(=C/CC(=O)O)C(=O)N[C@@H]2C(=O)N3C(C(=O)O)=CCS[C@H]23)cs1", "test": "(§1) TP_TRANSPORTER: uptake in Xenopus laevis oocytes"}, "[10]": {"substrate": "CC1=C(C(=O)O)N2C(=O)[C@@H](NC(=O)[C@H](N)C3=CCC=CC3)[C@H]2SC1", "test": "as §1"}}, "data": [{"molecule": "Nc1nc(/C(=C/CC(=O)O)C(=O)N[C@@H]2C(=O)N3C(C(=O)O)=CCS[C@H]23)cs1", "values": [{"measurement": "Activity", "setting": "[1]", "result": "inhibitor [+]"}]}, {"molecule": "NCCC(=O)N[C@@H](Cc1c[nH]cn1)C(=O)O", "values": [{"measurement": "Activity", "setting": "[2]", "result": "inhibitor [+]"}, {"measurement": "Activity", "setting": "[3]", "result": "inhibitor [+]"}]}, {"molecule": "CC1=C(C(=O)O)N2C(=O)[C@@H](NC(=O)[C@H](N)C3=CCC=CC3)[C@H]2SC1", "values": [{"measurement": "Activity", "setting": "[4]", "result": "is not an inhibitor [-]"}]}, {"molecule": "CC(C)C[C@H](NC(=O)[C@@H](O)[C@H](N)Cc1ccccc1)C(=O)O", "values": [{"measurement": "Activity", "setting": "[5]", "result": "inhibitor [+]"}, {"measurement": "Activity", "setting": "[6]", "result": "inhibitor [+]"}]}, {"molecule": "CC(C)C[C@H](NC(=O)CN)C(=O)O", "values": [{"measurement": "Activity", "setting": "[7]", "result": "inhibitor [+]"}, {"measurement": "Activity", "setting": "[8]", "result": "inhibitor [+]"}]}, {"molecule": "B1", "values": [{"measurement": "Km", "setting": "[9]", "result": 0.9, "unit": "mM"}, {"measurement": "Km", "setting": "[10]", "result": 12.4, "unit": "mM"}]}]}
